Results taken from PubChem BioAssay (NCI).
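A five-concentration, 48-hour dose response in 96-well plates underlies each endpoint, interpolated linearly between surrounding concentrations. At the GI50, growth is halved. TGI denotes the concentration required for complete inhibition of growth.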

Experiments:
Test in all cases: NCI-60 cell line screen, 48 h
786-0 renal = tested on: 786-0 renal
SK-MEL-28 melanoma = tested on: SK-MEL-28 melanoma
TK-10 renal = tested on: TK-10 renal
MALME-3M melanoma = tested on: MALME-3M melanoma
UACC-62 melanoma = tested on: UACC-62 melanoma
K-562 leukemia = tested on: K-562 leukemia
U251 CNS = tested on: U251 CNS
SN12C renal = tested on: SN12C renal
SK-OV-3 ovarian = tested on: SK-OV-3 ovarian
MOLT-4 leukemia = tested on: MOLT-4 leukemia
SK-MEL-5 melanoma = tested on: SK-MEL-5 melanoma
KM12 colon = tested on: KM12 colon
OVCAR-3 ovarian = tested on: OVCAR-3 ovarian
CAKI-1 renal = tested on: CAKI-1 renal
HS 578T breast = tested on: HS 578T breast
SNB-75 CNS = tested on: SNB-75 CNS
MCF7 breast = tested on: MCF7 breast
RXF 393 renal = tested on: RXF 393 renal
MDA-MB-231 breast = tested on: MDA-MB-231 breast
OVCAR-4 ovarian = tested on: OVCAR-4 ovarian
MDA-MB-435 = tested on: MDA-MB-435
M14 melanoma = tested on: M14 melanoma
IGROV1 ovarian = tested on: IGROV1 ovarian
COLO 205 colon = tested on: COLO 205 colon
HOP-92 NSCLC = tested on: HOP-92 NSCLC
RPMI-8226 leukemia = tested on: RPMI-8226 leukemia
DU-145 prostate = tested on: DU-145 prostate
UO-31 renal = tested on: UO-31 renal
NCI-H226 lung = tested on: NCI-H226 lung
CCRF-CEM leukemia = tested on: CCRF-CEM leukemia
HL-60(TB) leukemia = tested on: HL-60(TB) leukemia
NCI-H522 lung = tested on: NCI-H522 lung
UACC-257 melanoma = tested on: UACC-257 melanoma
EKVX NSCLC = tested on: EKVX NSCLC
BT-549 breast = tested on: BT-549 breast
SF-539 CNS = tested on: SF-539 CNS
NCI/ADR-RES ovarian = tested on: NCI/ADR-RES ovarian
T-47D breast = tested on: T-47D breast
PC-3 prostate = tested on: PC-3 prostate
HCC-2998 colon = tested on: HCC-2998 colon
SF-295 CNS = tested on: SF-295 CNS
SW-620 colon = tested on: SW-620 colon
SNB-19 CNS = tested on: SNB-19 CNS
HOP-62 NSCLC = tested on: HOP-62 NSCLC
NCI-H460 lung = tested on: NCI-H460 lung
SK-MEL-2 melanoma = tested on: SK-MEL-2 melanoma
OVCAR-8 ovarian = tested on: OVCAR-8 ovarian
OVCAR-5 ovarian = tested on: OVCAR-5 ovarian
NCI-H23 lung = tested on: NCI-H23 lung
A549 NSCLC = tested on: A549 NSCLC
A498 renal = tested on: A498 renal
HT29 colon = tested on: HT29 colon
HCT-15 colon = tested on: HCT-15 colon
SF-268 CNS = tested on: SF-268 CNS
LOX IMVI melanoma = tested on: LOX IMVI melanoma
ACHN renal = tested on: ACHN renal
HCT-116 colon = tested on: HCT-116 colon
MDA-MB-468 breast = tested on: MDA-MB-468 breast
SR leukemia = tested on: SR leukemia

Structure (SMILES): O=C(NO)c1ccc(Cn2ccc3c(Nc4ccccc4)ncnc32)cc1
- GI50 (786-0 renal): 3.78 µM
- TGI (786-0 renal): 8.97 µM
- GI50 (SK-MEL-28 melanoma): 2.04 µM
- TGI (SK-MEL-28 melanoma): 6.29 µM
- GI50 (TK-10 renal): 1.42 µM
- TGI (TK-10 renal): 12 µM
- GI50 (MALME-3M melanoma): 0.869 µM
- TGI (MALME-3M melanoma): 4.1 µM
- GI50 (UACC-62 melanoma): 1.04 µM
- TGI (UACC-62 melanoma): 4.42 µM
- GI50 (K-562 leukemia): 1.14 µM
- TGI (K-562 leukemia): > 29 µM
- GI50 (U251 CNS): 2.78 µM
- TGI (U251 CNS): 15.8 µM
- GI50 (SN12C renal): 3.29 µM
- TGI (SN12C renal): 7.05 µM
- GI50 (SK-OV-3 ovarian): 2 µM
- TGI (SK-OV-3 ovarian): 9.87 µM
- GI50 (MOLT-4 leukemia): 0.93 µM
- TGI (MOLT-4 leukemia): 7.6 µM
- GI50 (SK-MEL-5 melanoma): 1.06 µM
- TGI (SK-MEL-5 melanoma): 4.05 µM
- GI50 (KM12 colon): 3.7 µM
- TGI (KM12 colon): 10.9 µM
- GI50 (OVCAR-3 ovarian): 3.06 µM
- TGI (OVCAR-3 ovarian): 12.1 µM
- GI50 (CAKI-1 renal): 2.17 µM
- TGI (CAKI-1 renal): 6.91 µM
- GI50 (HS 578T breast): 1.7 µM
- TGI (HS 578T breast): 17.5 µM
- GI50 (SNB-75 CNS): 1.04 µM
- TGI (SNB-75 CNS): 6.11 µM
- GI50 (MCF7 breast): 3.8 µM
- TGI (MCF7 breast): 12.4 µM
- GI50 (RXF 393 renal): 0.934 µM
- TGI (RXF 393 renal): 4.02 µM
- GI50 (MDA-MB-231 breast): 1.94 µM
- TGI (MDA-MB-231 breast): 6.68 µM
- GI50 (OVCAR-4 ovarian): 5.79 µM
- TGI (OVCAR-4 ovarian): > 29 µM
- GI50 (MDA-MB-435): 1.22 µM
- TGI (MDA-MB-435): 5.03 µM
- GI50 (M14 melanoma): 2.99 µM
- TGI (M14 melanoma): 10.1 µM
- GI50 (IGROV1 ovarian): 2.34 µM
- TGI (IGROV1 ovarian): 6.22 µM
- GI50 (COLO 205 colon): 1.43 µM
- TGI (COLO 205 colon): 5.73 µM
- GI50 (HOP-92 NSCLC): 1.74 µM
- TGI (HOP-92 NSCLC): 7.35 µM
- GI50 (RPMI-8226 leukemia): 1.1 µM
- TGI (RPMI-8226 leukemia): > 29 µM
- GI50 (DU-145 prostate): 1.41 µM
- TGI (DU-145 prostate): > 29 µM
- GI50 (UO-31 renal): 2.42 µM
- TGI (UO-31 renal): 6.38 µM
- GI50 (NCI-H226 lung): 3.88 µM
- TGI (NCI-H226 lung): 16 µM
- GI50 (CCRF-CEM leukemia): 1.41 µM
- TGI (CCRF-CEM leukemia): > 29 µM
- GI50 (HL-60(TB) leukemia): 0.984 µM
- TGI (HL-60(TB) leukemia): 3.89 µM
- GI50 (NCI-H522 lung): 1.07 µM
- TGI (NCI-H522 lung): 4.87 µM
- GI50 (UACC-257 melanoma): 2.3 µM
- TGI (UACC-257 melanoma): 9.79 µM
- GI50 (EKVX NSCLC): 2.75 µM
- TGI (EKVX NSCLC): 6.9 µM
- GI50 (BT-549 breast): 7.71 µM
- TGI (BT-549 breast): 15.4 µM
- GI50 (SF-539 CNS): 2.55 µM
- TGI (SF-539 CNS): 6.77 µM
- GI50 (NCI/ADR-RES ovarian): 0.636 µM
- TGI (NCI/ADR-RES ovarian): 2.03 µM
- GI50 (T-47D breast): 2.42 µM
- TGI (T-47D breast): > 29 µM
- GI50 (PC-3 prostate): 2.82 µM
- TGI (PC-3 prostate): 21.5 µM
- GI50 (HCC-2998 colon): 2.62 µM
- TGI (HCC-2998 colon): 6.12 µM
- GI50 (SF-295 CNS): 1.73 µM
- TGI (SF-295 CNS): 5.74 µM
- GI50 (SW-620 colon): 0.863 µM
- TGI (SW-620 colon): 3.31 µM
- GI50 (SNB-19 CNS): 3.26 µM
- TGI (SNB-19 CNS): 7.51 µM
- GI50 (HOP-62 NSCLC): 2.2 µM
- TGI (HOP-62 NSCLC): 7.63 µM
- GI50 (NCI-H460 lung): 1.33 µM
- TGI (NCI-H460 lung): 8.45 µM
- GI50 (SK-MEL-2 melanoma): 4.75 µM
- TGI (SK-MEL-2 melanoma): 11.4 µM
- GI50 (OVCAR-8 ovarian): 1.29 µM
- TGI (OVCAR-8 ovarian): 8.8 µM
- GI50 (OVCAR-5 ovarian): 1.02 µM
- TGI (OVCAR-5 ovarian): 5.07 µM
- GI50 (NCI-H23 lung): 1.47 µM
- TGI (NCI-H23 lung): 5.08 µM
- GI50 (A549 NSCLC): 3.1 µM
- TGI (A549 NSCLC): 15.5 µM
- GI50 (A498 renal): 1.31 µM
- TGI (A498 renal): 6.79 µM
- GI50 (HT29 colon): 1.43 µM
- TGI (HT29 colon): 14.1 µM
- GI50 (HCT-15 colon): 3.59 µM
- TGI (HCT-15 colon): 7.81 µM
- GI50 (SF-268 CNS): 4.06 µM
- TGI (SF-268 CNS): 9.64 µM
- GI50 (LOX IMVI melanoma): 1.78 µM
- TGI (LOX IMVI melanoma): 5.44 µM
- GI50 (ACHN renal): 1.95 µM
- TGI (ACHN renal): 5.92 µM
- GI50 (HCT-116 colon): 0.993 µM
- TGI (HCT-116 colon): 5.6 µM
- GI50 (MDA-MB-468 breast): 0.718 µM
- TGI (MDA-MB-468 breast): 2.76 µM
- GI50 (SR leukemia): 0.817 µM
- TGI (SR leukemia): > 29 µM
